Test results taken from publication PMC9095880, “AIMP2-DX2 provides therapeutic interface to control KRAS-driven tumorigenesis” (Nature Communications, 2022).

Target: T1, AIMP2 (Homo sapiens, UniProt Q13155)
T1 construct: purified AIMP2, in vitro pull-down
T1 sequence (Q13155 1-320): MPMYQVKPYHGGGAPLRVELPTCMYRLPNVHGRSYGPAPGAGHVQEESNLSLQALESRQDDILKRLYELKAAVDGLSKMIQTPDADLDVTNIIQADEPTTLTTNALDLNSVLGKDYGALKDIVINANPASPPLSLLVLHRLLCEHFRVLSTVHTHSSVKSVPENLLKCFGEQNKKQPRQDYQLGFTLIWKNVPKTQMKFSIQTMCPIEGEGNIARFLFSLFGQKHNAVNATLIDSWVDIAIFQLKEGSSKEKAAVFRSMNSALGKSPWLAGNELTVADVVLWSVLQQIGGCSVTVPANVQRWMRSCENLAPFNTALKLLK
Experiment: in vitro pull-down with purified AIMP2
Details: no binding to cellular AIMP2 in immunoprecipitation

## COc1ccc(-c2ccc(CN(C(=O)c3cnc4ccccc4n3)c3ccccc3F)s2)cc1C [BC-DXI-32982]
  in vitro pull-down with purified AIMP2: DXI showed binding to the purified AIMP2 in an in vitro pull-down assay
